Results: US20190218207A1, “3-(Pyridin-3-yl)-Acrylamide and N-(Pyridin-3-yl)-Acrylamide Derivatives and Their Use as PAK or NAMPT Modulators” (Karyopharm Therapeutics Inc., priority 2015, published 2019)
Read-outs that look alike come from different tables or passages of the source.

What was measured:
MS751 cells = assay: MTT cell proliferation assay, MS751 cells; assay type: cell-based, human; settings: incubation approximately 64-72 hours, read-out: MTT Assay IC50, MS 751
Experimental: (§1) The MTT cell proliferation assay was used to study the cytotoxic properties of the compounds. The assay was performed according to the method described by Roche Molecular Biochemicals, with minor modifications. The assay is based on the cleavage of the tetrazolium salt, MTT, in the presence of an electron-coupling reagent. The water-insoluble formazan salt produced must be solubilized in an additional step. Cells grown in a 96-well tissue culture plate were incubated with the MTT solution for approximately 4 hours. After this incubation period, a water-insoluble formazan dye formed. After solubilization, the formazan dye was quantitated using a scanning multi-well spectrophotometer (ELISA reader). […] The cells were seeded at 5,000-10,000 cells in each well of 96-well plate in 100 μL of fresh culture medium and were allowed to attach overnight. The stock solutions of the compounds were diluted in […] cell culture medium to obtain eight concentrations of each test compound, ranging from 1 nM to 30 μM. […] All optical densities were measured at 490 nm using a Vmax Kinetic Microplate Reader (Molecular Devices). In most cases, the assay was performed in duplicate and the results were presented as a mean percent inhibition to the negative control±SE. The following formula was used to calculate the percent of inhibition: Inhibition (%)=(1-(ODo/OD))×100.
(§2) The compounds were tested against MS751, Z138 and 3T3 cells. The MS751 cell line is derived from a metastasis to lymph node of human cervix from a patient diagnosed with squameous cell carcinoma of the cervix. The Z138 cell line is a mature B-cell acute lymphoblastic leukemia cell line derived from a patient with chronic lumphocytic leukemia. 3T3 cells are standard fibroblast cells; they were originally isolated from Swiss mouse embryo tissue.

Z138 cells = assay: MTT cell proliferation assay, Z138 cells; assay type: cell-based, human
Experimental: as §1, §2

3T3 cells = assay: MTT cell proliferation assay, 3T3 cells; assay type: cell-based, mouse; settings: 3T3 fibroblast cells, incubation approximately 64-72 hours
Experimental: as §1, §2

[1] = Homo sapiens, Z-138, incubation approximately 64-72 hours
[2] = incubation approximately 64-72 hours, read-out: MTT Assay IC50, Z-138

Compound | IC50 (MS751 cells; Homo sapiens) [nM] | IC50 (Z138 cells; [1]) [nM] | IC50 (3T3 cells; Mus musculus, NIH3T3) [nM] | IC50 (MS751 cells) [nM] | IC50 (Z138 cells; [2]) [nM] | IC50 (3T3 cells) [nM]
Nc1ccc(/C=C/C(=O)NCc2cnc(-c3ccc(-c4ccc(C(=O)N5CC(F)C5)cc4)cc3C(F)(F)F)o2)cn1 [Compound A021, (E)-3-(6-aminopyridin-3-yl)-N-((2-(4′-(3-fluoroazetidine-1-carbonyl)-3-(trifluoromethyl)-[1,1′-biphenyl]-4-yl)oxazol-5-yl)methyl)acrylamide] | < 1000 | < 1000 | 1000 to 5000 | – | – | –
Nc1ccc(/C=C/C(=O)NCc2cnc(-c3ccc(-c4ccc(C(=O)N5CC(F)(F)C5)cc4F)cc3C(F)(F)F)o2)cn1 [Compound A022, (E)-3-(6-aminopyridin-3-yl)-N-((2-(4′-(3,3-difluoroazetidine-1-carbonyl)-2′-fluoro-3-(trifluoromethyl)-[1,1′-biphenyl]-4-yl)oxazol-5-yl)methyl)acrylamide] | < 1000 | < 1000 | < 1000 | – | – | –
Cc1c(CNC(=O)/C=C/c2ccc(N)nc2)sc(-c2ccc(-c3ccc(C(=O)N4CCC(F)(F)CC4)cc3)cc2-c2ccc(F)cc2)c1C [Compound A023, (E)-3-(6-aminopyridin-3-yl)-N-((5-(4-(4,4-difluoropiperidine-1-carbonyl)-4″-fluoro-[1,1′:3′,1″-terphenyl]-4′-yl)-3,4-dimethylthiophen-2-yl)methyl)acrylamide] | 1000 to 5000 | < 1000 | > 10000 | – | – | –
Nc1ccc(/C=C/C(=O)NCc2ncc(-c3ccc(-c4ccc(C(=O)N5CC(F)(F)C5)cc4)cc3C(F)(F)F)o2)cn1 [Compound A024, (E)-3-(6-aminopyridin-3-yl)-N-((5-(4′-(3,3-difluoroazetidine-1-carbonyl)-3-(trifluoromethyl)-[1,1′-biphenyl]-4-yl)oxazol-2-yl)methyl)acrylamide] | < 1000 | < 1000 | 1000 to 5000 | – | – | –
Nc1ccc(/C=C/C(=O)NCc2ccc(-c3c(C(F)(F)F)cc(-c4ccc(C(=O)N5CC(F)(F)C5)cn4)cc3C(F)(F)F)o2)cn1 [Compound A025, (E)-3-(6-aminopyridin-3-yl)-N-((5-(4-(5-(3,3-difluoroazetidine-1-carbonyl)pyridin-2-yl)-2,6-bis(trifluoromethyl)phenyl)furan-2-yl)methyl)acrylamide] | < 1000 | < 1000 | < 1000 | – | – | –
Nc1ccc(/C=C/C(=O)NCc2ccc(-c3cc4cc(C(=O)N5CCC(F)(F)CC5)cnc4cc3C(F)(F)F)o2)cn1 [Compound A026, (E)-3-(6-aminopyridin-3-yl)-N-((5-(3-(4,4-difluoropiperidine-1-carbonyl)-7-(trifluoromethyl)quinolin-6-yl)furan-2-yl)methyl)acrylamide] | < 1000 | < 1000 | 1000 to 5000 | – | – | –
Cn1c(CNC(=O)/C=C/c2ccc(N)nc2)ccc1-c1ccc(-c2ccc(C(=O)N3CCC(F)(F)CC3)cc2)cc1-c1ccc(F)cc1 [Compound A-012, (E)-3-(6-aminopyridin-3-yl)-N-((5-(4-(4,4-difluoropiperidine-1-carbonyl)-4″-fluoro-[1,1′:3′,1″-terphenyl]-4′-yl)-1-methyl-1H-pyrrol-2-yl)methyl)acrylamide] | > 10000 | > 10000 | > 10000 | – | – | –
(E)-3-(6-aminopyridin-3-yl)-N-((5-(1-chloro-6-(4,4-difluoropiperidine-1-carbonyl)naphthalen-2-yl)furan-2-yl)methyl)acrylamide [Compound A004] | – | – | – | < 1000 | < 1000 | > 10000
(E)-(4′-(2′-(2-(6-aminopyridin-3-yl)vinyl)-5,5′-bioxazol-2-yl)-3′-(trifluoromethyl)biphenyl-4-yl)(3,3-difluoroazetidin-1-yl)methanone [Compound A027] | – | – | – | > 10000 | > 10000 | > 10000
